These results are taken from patent publication US20140186325A1, “Methods of Cancer Treatment and Prevention Through the Modulation of SIRT4 Activity” (President and Fellows of Harvard College, priority 2011, published 2014).

What all share (format): cell-based
The test system of test [1] is SIRT4 KO cells. Kind of test: Glutamine uptake of SIRT4 KO cells with glutaminolysis inhibitors. As to conditions: for glutamine uptake: 10 μM BPTES, 50 μM EGCG. The procedure:
(§1) As described above, SIRT4 represses glutamine-derived mitochondrial anaplerosis. This node was investigated further using a pharmacological and genetic approach. GLS is the first required enzyme for mitochondrial glutamine metabolism, and catalyzes the hydrolysis of glutamine to glutamate and ammonia. […] Drugs that block glutamate dehydrogenase (GDH) activity were also examined. There were no effects of a GDH inhibitor, 50 μM of Epigallocatechin gallate (EGCG), in glutamine uptake. Moreover, SIRT4 overexpression could no longer inhibit glutamine uptake and ammonia production when GLS1 was targeted using short hairpin RNA (shRNA) (FIG. 13b, c). Finally, cells were treated with chemical inhibitors of mitochondrial glutaminolysis in order to probe the model that suppressing this node could block the repression of glutamine uptake by DNA damage.

In test [2] the test system is mitochondrial glutaminolysis. Kind of test: Repression of glutamine uptake by UV in the presence of inhibitors of mitochondrial glutaminolysis. As to conditions: in the presence of the inhibitor. The protocol: as §1
Test [3] concerns SIRT4 KO MEFs. Kind of test: Proliferation of SIRT4 KO MEFs. As to conditions: SIRT4 KO versus WT MEFs cultured with BPTES. The procedure: To test whether enhanced glutamine metabolism drove the proliferative phenotype of KO cells, cells were cultured with BPTES and proliferation was measured.
Test [4] relates to HeLa cells. In words: Proliferation of control and SIRT4-expressing HeLa cells. The conditions noted are these: media containing BPTES.
For test [5], the system named is HepG2 cells. Kind of test: Metabolite levels in culture media (BioProfile FLEX analyzer), HepG2 cells. As to conditions: 14 μM for 12 hours. The procedure: (§2) The relationship between glutamine metabolism and DNA damage was investigated. HepG2 cells and MEF cells were treated with either 14 μM camptothecin (CPT) for 12 hours or 50 J/m^2 ultra-violet (UV) radiation, both of which are known to induce DNA damage in cells. Glucose, glutamine, lactate and ammonia (NH4^+) levels in culture media were measured using the BioProfile FLEX analyzer (Nova Biomedical) according to the manufacturer's instructions.

The subject of test [6] is MEF cells. Kind of test: Metabolite levels in culture media (BioProfile FLEX analyzer), MEF cells. As to conditions: 14 μM for 12 hours. The procedure: as §2
Test [7] relates to SIRT4. Kind of test: SIRT4 expression level after genotoxic stress, HEK293T cells. As to conditions: 14 μM CPT, 25 μM ETS, 48 μM tunicamycin. The text has this: The relationship between sirtuin expression and DNA damage was next investigated.
The subject of test [8] is SIRT4 protein. Kind of test: SIRT4 protein expression by western blot, HEK293T cells. A general note: Immunoblotting shows a protein as a band on a membrane.
For test [9], the system named is SIRT4 protein. Kind of test: SIRT4 protein expression by western blot, MEF cells.
The test system of test [10] is HepG2 cells. In words: Relative ATP/ADP ratio of HepG2 cells stably expressing human SIRT4 or SIRT4 mutant. As to conditions: CPT (14 μM) + oligomycin (5 g/ml) for 18 hours. The protocol: The relationship between SIRT4 and mitochondrial metabolism was next investigated. The relative ATP/ADP ratio of HepG2 cells that stably expressed human SIRT4 or SIRT4 mutant was measured following treatment with DMSO, CPT (14 μM) or CPT+oligomycin ([…]) for 18 hours.

In the case of `O=C(Cc1ccccc1)Nc1nnc(CCSCCc2nnc(NC(=O)Cc3ccccc3)s2)s1` [BPTES, bis-2-(5-phenylacetoamido-1,2,4-thiadiazol-2-yl)ethyl sulfide], the “increased glutamine consumption of SIRT4 KO cells” value in test [1] (10 μM) is given as “rescued”. Further, in test [1], the glutamine uptake result is reported as “repressed glutamine uptake”. For the same compound, the “repression of glutamine uptake by UV treatment” value in test [2] was “could no longer repress glutamine uptake”. Also, the “increased proliferation of KO cells” value in test [3] is “completely abrogated”. Further, the “proliferation of control and SIRT4-expressing cells” value in test [4] was “proliferated at similar rates”.
Consider `CC[C@@]1(O)C(=O)OCc2c1cc1n(c2=O)Cc2cc3ccccc3nc2-1` [CPT, camptothecin], for which the “NH4+ production” value in test [5] and in test [6] was “significant reductions” each time. The glutamine consumption result in [5] and in test [6] was “significant reductions” throughout. Also, in test [7], the “level of SIRT4 expression versus length of exposure” value is reported as “correlated with the length of time”. For the same compound, the SIRT4 protein expression entry in test [8] and in [9] was “increased SIRT4 protein expression” throughout.
On to `O=C(O[C@@H]1Cc2c(O)cc(O)cc2O[C@@H]1c1cc(O)c(O)c(O)c1)c1cc(O)c(O)c(O)c1` [EGCG, Epigallocatechin gallate], for which the glutamine uptake result in test [1] is “no effects”.
In the case of `COc1cc([C@@H]2c3cc4c(cc3[C@@H](O[C@@H]3O[C@@H]5CO[C@@H](C)O[C@H]5[C@H](O)[C@H]3O)[C@H]3COC(=O)[C@H]23)OCO4)cc(OC)c1O` [ETS, etoposide], the SIRT4 protein expression entry in test [8] and in test [9] was “increased SIRT4 protein expression” each time.
Regarding `CC[C@H]1/C=C/C=C/C[C@@H](C)[C@H](O)[C@@](C)(O)C(=O)[C@@H](C)[C@H](O)[C@@H](C)C(=O)[C@@H](C)[C@H](O)[C@@H](C)/C=C/C(=O)O[C@@H]2[C@H](C)[C@H](CC1)O[C@]1(CC[C@H](C)[C@H](C[C@@H](C)O)O1)[C@H]2C` [oligomycin], in [10], the “difference in ATP/ADP ratio between SIRT4 and mutant SIRT4 over-expressing cells after CPT” value is “difference disappeared”.
As for tunicamycin, in test [7], the “level of SIRT4 expression versus length of exposure” value was “correlated with the length of time”.
